Several values for one entry are separate records, joined by “and”; a condition that tells them apart may be missing. Identical values can stand only once. Like-named read-outs stand apart in the source and are kept apart here.
Key:
[1] = system: Pseudomonas aeruginosa; conditions: for mean log reduction of CFU compared with the controls: P. aeruginosa in dual-species biofilm; for significance of reduction of P. aeruginosa vs negative controls (ANOVA): α=0.05
Description: (§1) In brief, round glass cover slips attached to a custom made stainless steel lid, were suspended in medium inoculated with bacteria.
(§2) Cells of E. faecalis V583 and P. aeruginosa, both clinical isolates, were grown and maintained as pure cultures on blood agar plates. E. faecalis was grown under anaerobic conditions (80% N2, 10% H2 and 1.0% CO2) while P. aeruginosa was grown in air, both at 37° C. Because of their shape, Gram-staining and atmospheric preferences, distinguishing between the two species with (ISM and CFU was fairly simple. Growth media for overnight cultures and biofilms were Brain Heart Infusion Broth (BHI, Oxoid, Basinstoke, UK) and BHI-broth contained 0.5 BHI, 50 mM pipes, 5% saccharose, 1 mM Ca^2+ during biofilm growth. In the experimental phase, sodium chloride (NaCl), (Merck, Darmstadt, Germany) was added to the BHI-broth to raise the osmotic value. Other medicaments used were saturated Ca(OH) in BHI-broth (slurry), 2% sodium hypochlorite (NaOCl), Merck, Darmstadt, Germany), 2% sodium thiosulphate (STS) in peptone water (1% peptone (Oxoid) in water) for neutralising the NaOCl. Phosphate buffered saline (PBS, Oxoid) was used to wash the negative controls, as a neutralising agent for NaCl, Ca(OH)2 and for serial
(§3) Fresh cultures of each micro-organism were obtained by suspending one loopful bacteria in 5 mL BHI and grown overnight at 37° C. in air. Numbers of CFU were estimated by optical density measurement at 600 nm and relating the readings to previously performed bacterial counts. 100 μL with approximately 2×10^9 E. faecalis and 100 μL with approximately 2×10^7 P. aeruginosa were inoculated in wells of a 24 Well Multiwell Plate (Greiner Bio-one, Frickenhausen, Germany) containing 1.5 mL BHI-broth. Round glass cover slips (MMG, Germany), diameter 15 mm, mounted in a custom-made stainless steel lid, were suspended in the BHI-broth. Biofilms were grown on glass cover slips to be able to monitor the biofilm growth with a confocal laser scanning microscope (CLSM; Leica SP2-OBS). The biofilms were firmly attached on the glass slips, allowing manipulation of the coverslips without biofilm disruption.
(§4) Biofilms were grown on the coverslips for 96 h before exposure to the medicaments. […] The broth was refreshed daily. Inoculation of bacteria and the biofilm growth took place at 37° C. in air. After 48 h biofilm growth was confirmed with the aid of CLSM. Three coverslips with attached biofilms were viewed with CLSM after staining with Syto 9 and propidium iodine (PI) (LIVE/DEAD® BacLight™) according to the manufacturer's instruction. Intact, live cells stain fluorescent green, while dead cells with damaged plasma membranes stain fluorescent red.
(§5) After 96 h the coverslips with the attached bio films were submerged in NaCl-broth or Ca(OH)2-broth for 4 h, 24 h, 48 h, 72 h and 168 h. The negative controls were kept in BHI-broth. Where applicable, the incubation fluids were refreshed daily. Submersion in NaOCl 2% for 10 min served as a positive control.

[2] = system: Enterococcus faecalis; conditions: for mean log reduction of CFU compared with the controls: E. faecalis in dual-species biofilm; for significance of reduction of E. faecalis vs negative controls (ANOVA): α=0.05
Description: as §1, §2, §3, §4, §5

[3] = system: biofilm of Enterococcus faecalis and Pseudomonas aeruginosa; assay: Dual-species biofilm model, whole biofilm (total kill, plaque observation); assay type: cell-based; conditions: for visual observation of biofilm plaque on glass coverslips: after the experimental phase, calcification seen after 24 h
Text: The broth was refreshed daily. […] Later on biofilm growth was confirmed clinically. […] Colonies were very small. […] For imaging a Leica DM-IRB inverted microscope/SP2-AOBS confocal system was used. Images (512*512 pixels) were acquired with a 40×/NA 1.25 HCX PL APO oil objective. The final pixel size was 0.776 μm. […] Image stacks were acquired with a stepsize of 0.3 μm. Excitation/detection of Syto-9 and propidium iodide (PI) was done simultaneously with 488 nm excitation and with 500-550 nm detection for SYTO 9 and 600-690 nm detection for PI respectively.

[4] = dual-species biofilms exposed to Ca(OH)2

| Compound | mean log reduction of CFU compared with the controls ([1]; 72 h exposure) [log CFU] | mean log reduction of CFU compared with the controls ([1]; 168 h exposure) [log CFU] | significance of reduction of P. aeruginosa vs negative controls (ANOVA) [1] | mean log reduction of CFU compared with the controls ([2]; 72 h exposure) [log CFU] | mean log reduction of CFU compared with the controls ([2]; 168 h exposure) [log CFU] | significance of reduction of E. faecalis vs negative controls (ANOVA) [2] | effectiveness in the biofilm model (conclusion) [3] | visual observation of biofilm plaque on glass coverslips [3] | bacterial reduction after a week (end of experiment) [3, 4] | bacterial reduction, initial [3, 4] | kill ([3]; 2% NaOCl, 10 min exposure) [%] | P. aeruginosa CFU detected after exposure ([1]; after 168 h exposure, control biofilms 1.5×10^9 CFU) | mean remaining CFU of E. faecalis ([2]; after 168 h exposure) [CFU] | reductions after a week's exposure ([3]; 6.2 M NaCl in broth, dual species biofilm, one value per species, species not assigned) |
| --- | --- | --- | --- | --- | --- | --- | --- | --- | --- | --- | --- | --- | --- | --- |
| [Ca+2].[OH-].[OH-] [Ca(OH)2, calcium hydroxide] | 2 | 1 | significantly | 2 | 1 | not significant | not effective | all samples showed bio film calcification | tenfold | hundredfold | – | – | – | – |
| OCl [NaOCl, sodium hypochlorite] | – | – | – | – | – | – | – | – | – | – | 100 | – | – | – |
| [Cl-].[Na+] [NaCl, sodium chloride] | 6 | 8 | highly significant | 6 | 8 | highly significant | – | no signs of a biofilm plaque | – | – | – | none could be detected | 40 | 10^8 and 10^7 |
